According to paper PMC4884960, “Long lasting MDM2/Translocator protein modulator: a new strategy for irreversible apoptosis of human glioblastoma cells” (Oncotarget, 2016):

Columns and labels:
[1] = system: U87MG cells; experiment: U87MG cell proliferation, MTS assay; type: cell-based, human; details: for cell proliferation 72 h after cell wash-out: U87MG, 72 h treatment, then drug-free medium 72 h
Description: The effects of compound treatment on U87MG cell viability and proliferation were evaluated by Trypan blue exclusion assays and MTS assay, respectively. […] For quantization of cell viability, blue and bright cells were counted, and viability was calculated as the number of living (bright) and dead (blue) cells in each well.
The absorbance of formazan at 490 nm was measured in a colorimetric assay with an automated plate reader (Victor Wallac 2, Perkin Elmer). For wash-out experiments, U87MG cells were treated with EB148 or EB54 (100 nM-10 μM) for 72 h. Following incubation, medium-containing drugs was replaced by fresh medium, and cells were allowed to growth for the indicated days. At the end of treatments, cell proliferation was measured by MTS assay. The results were calculated by subtracting the mean background from the values obtained from each evaluation and were expressed as the percentage of the control (untreated cells). Sigmoid dose-response curve was generated, from which the IC50 values were derived.

[2] = system: p53 target genes (p53, p21 and MDM2); experiment: Relative mRNA quantification of p53 target genes by real-time RT-PCR; type: cell-based, human; details: for levels of p53 target gene transcripts after wash-out: treated for 2 h (text; legend: 16 h), washed out for 16 h in drug-free medium
Description: In brief, total RNA was extracted from control cells as well as from cells treated with EB148 or EB54 (1 μM) for different times (8 h, 16 h or 24 h), using RneasyH Mini Kit (Qiagen, Hilden, Germany), according to manufacturer's instructions. cDNA synthesis was performed with 500 ng of RNA using i-Script cDNA synthesis kit (BioRad, Hercules, USA). RT-PCR reactions consisted of 25 μl FluocycleH II SYBRH (Euroclone, Milano, Italy), 1.5 μl of both 10 μM forward and reverse primers (listed in [56]), 3 μl cDNA, and 19 μL of H2O. […] PCR specificity was verified by both the melting curve analysis and gel electrophoresis.

[3] = system: U87MG cells; experiment: U87MG cell viability, trypan blue exclusion test; type: cell-based, human; details: 72 h, maximal effect at 100 μM
Description: The effects of compound treatment on U87MG cell viability and proliferation were evaluated by Trypan blue exclusion assays and MTS assay, respectively. U87MG cells were treated with EB148 or EB54 for 72 h. Following treatment, harvested cells were mixed with an equal volume of 0.4% trypan blue dye. For quantization of cell viability, blue and bright cells were counted, and viability was calculated as the number of living (bright) and dead (blue) cells in each well. To establish the effect of MDM2 inhibitors on cell proliferation, cells were treated for 72 h with different concentrations of each compound (0.1 nM–100 μM) for 72 h, and then MTS assay was performed according to the manufacturer's instructions.

[4] = system: mitochondria isolated from U87MG cells; experiment: Mitochondrial membrane potential (Δψm) dissipation, JC-1 protocol; type: biochemical, human; details: 1 μM, 20 min; for JC-1 accumulation (Δψm) compared to control untreated mitochondria: isolated mitochondria
Description: The Δψm dissipation was assessed using the fluorescent dye 5,59,6,69-tetrachloro1,19,3,39-tetraethylbenzimidazolylcarbocyanine iodide (JC-1). Mitochondria were isolated from U87MG cells using the Mitochondria Isolation Kit (Sigma Aldrich, Milan, Italy) following manufacturer's instructions.
Isolated mitochondria were treated for 20 min with EB54 or EB148 (1 μM). In wash-out experiments, mitochondria were then centrifuged at 11.000 × g for 5 min, washed with fresh saline and suspended in JC-1 buffer not containing the drugs. At the end of treatments, 5 μg of control and treated mitochondria were added to the JC-1 dye. The fluorescence (relative fluorescence units, RFU) of the sample was read in a spectrofluorimeter using a time-drive method (one acquisition each 10 sec, for 10 min), where the excitation wavelength was set to 490 nm and emission wavelength at 590 nm. […] Consequently, mitochondrial depolarization is indicated by a decrease in the orange-red fluorescence intensity.

[5] = system: ERK1/2; experiment: ERK1/2 phosphorylation ELISA in U87MG cells; type: cell-based, human; details: for ERK1/2 phosphorylation: 1 μM, up to 8 h; for effect of blocking p53 on compound-mediated ERK1/2 activation: pifithrin-β 1 μM 30 min, then compound 1 μM 2 h
Description: Figure 10 ERK phosphorylation and levels of ERK/MDM2 complex in U87MG cells A. U87MG cells were treated with DMSO (control), 1 μΜ EB148 or 1 μΜ EB54 for the indicated times; in some experiments, after 2 h of treatment the medium was replaced by fresh medium not containing drugs for an additional 2 h. At the end of the treatment period the levels of ERK 1/2 phosphorylation were evaluated using ELISA kits, as described in the Methods section. The data are expressed as the percentage of phosphorylated ERK1/2 versus untreated cells (control), which were set at 100%. Data are the mean values ± SEM of three independent experiments performed in triplicate. Analysis of significant differences in mean ERK/MDM2 complex levels was performed using one-way ANOVA with a Bonferroni post-test: * p< 0.05, ** p< 0.01, *** p<0.001 vs. control. […] C. U87MG cells were treated with DMSO (control), 1 μΜ EB148 or 1 μΜ EB54 for the indicated times; in some experiments, after 8 h of treatment, the medium was replaced by fresh medium not containing drugs for an additional 24 h. At the end of the treatment period, U87MG cells were collected and suspended in lysis buffer. Equal amounts of cell lysates were captured on wells pre-coated with MDM2 antibody. After extensive washing, the levels of the ERK/MDM2 complex were quantified using an antibody specific for ERKs, and subsequently an HRP-conjugated antibody and a TMB substrate kit. Data are expressed as percentage of control set to 100%, and represent the mean ± SEM of three independent experiments. The significance of the differences was determined with a one-way ANOVA with Bonferroni post-test: * p<0.05, ** p<0.01, *** p<0.001 vs. control.

[6] = system: mesenchymal Stem Cells (MSCs) isolated from human bone marrow; experiment: Toxicity in non-tumour cells, MSC proliferation by MTS assay; type: cell-based; details: 72 h; EB54 at 10 μM; EB148 up to the highest concentration tested
Description: […]. At the end of treatments, cell proliferation was measured by MTS assay.

[7] = system: p53 protein; experiment: p53 protein accumulation by western blotting; type: cell-based, human; details: for p53 protein levels after wash-out: 1 μM for 16 h, then wash-out of 16 h; for p53 protein levels: 1 μM, 16 h
Description: U87MG were treated with DMSO (control), EB148 or EB54 for 16 h. […] […] Glyceraldehyde-3-phosphate dehydrogenase (GAPDH) was the loading control ([…], Sigma Aldrich, Milan, Italy, 1:5000). The primary antibodies were detected using the appropriate peroxidase-conjugated secondary antibodies, which were then detected using a chemioluminescent substrate (ECL, Perkin Elmer). Densitometric analysis of the immunoreactive bands was performed using Image J Software.

[8] = target: T1, human TSPO (Homo sapiens, UniProt P30536); experiment: TSPO association/dissociation and competition kinetics with [3H]PK11195; type: binding; details: for Kd: calculated as ratio of estimated koff and kon
T1 construct: aliquots of U87MG cell membranes (20 μg of proteins) were incubated with [^3H]PK 11195 (1.5 nM); endogenous in cells; host or cells: U87MG human glioblastoma cell membranes
Source text: Association and dissociation rate constants for [^3H]
For competition kinetics, the [^3H]

[9] = system: U87MG cells; experiment: Annexin V and 7-AAD staining (apoptosis); type: cell-based, human; details: 1 μM, 24 h
Description: Dual staining with Annexin V coniugated to fluorescein-isothiocyanate (FITC) and 7-amino-actinomysin (7-AAD) was performed using the commercially available kit (Muse Annexin V and Dead Cell Kit; Merck KGaA, Darmstadt, Germany).
U87MG cells were treated with DMSO (control), EB54 or EB148 (1 μM) for 24 h. Both floating and adherent cells were collected, and incubated for 10 min at room temperature with the fluorescent reagent. After incubation, the percentages of living, apoptotic and dead cells were acquired and analyzed by MuseTM Cell Analyzer in accordance to the manufacture's guidelines.

[10] = target: T1, human TSPO; experiment: Equilibrium [3H]PK11195 radioligand binding assay in U87MG cell membranes
Description: Equilibrium radioligand binding assays were performed essentially as previously described. […] Samples were rapidly filtered under vacuum through GF/C glass fiber filters.

[11] = target: T2, p53/MDM2 complex (Homo sapiens, UniProt Q00987); experiment: Levels of p53/MDM2 complex in U87MG whole cells (ELISA); type: cell-based
T2 construct: endogenous in cells; host or cells: U87MG human glioblastoma cells, treated whole and then lysed
Description: (§1) U87MG cells were treated with DMSO (control), EB148 or EB54 for different times. When indicated, after 8 h of incubation, cells were washed twice with fresh saline and cultured in drug-free medium for an additional 24 h. At the end of the treatment period, the cells were collected, and suspended in lysis buffer containing 1% of the Protease inhibitor Cocktail.

[12] = system: ERK/MDM2 complex; experiment: Levels of ERK/MDM2 complex in U87MG cells (ELISA); type: cell-based, human
Description: as §1

[13] = target: T3, MDM2/p53 complex (Homo sapiens, UniProt Q00987); experiment: Dissociation of native MDM2/p53 complex, sandwich immuno-enzymatic assay on U87MG cell lysates; type: biochemical
T3 construct: endogenous in cells; host or cells: crude lysates of U87MG human glioblastoma cells
Description: Cells were washed twice in ice-cold phosphate-buffered saline, collected by centrifugation, and suspended in lysis buffer (20 mM Tris HCl, 137 mM NaCl, 10% glycerol, 1% NONIDET40, 2 mM EDTA, pH 8) containing 1% of the Protease inhibitor Cocktail (Sigma Aldrich, Milan, Italy). 96-wells were pre-coated with a mouse full-length anti-MDM2 antibody (sc-965, Santa Cruz Biotechnology, 1:50 in 0.05% Poly-L-Ornithine) overnight at room temperature. Cell lysates (20 μg in a final volume of 100 μl) were pre-incubated with DMSO (control), or different compound concentration for 10 min at room temperature, and then transferred to the pre-coated wells for 60 min. After three quick washes with PBS/Tween 0.05% to remove unbound MDM2, each well was incubated for 15 min with 1% BSA, to block nonspecific sites, and then for 1.5 h at room temperature with a rabbit primary anti-p53 antibody (sc-6243, Santa Cruz Biotechnology, 1:250). Then, wells were washed and incubated for 1 h with an anti-rabbit HRP-conjugate antibody, and washed again. […] Blanks were obtained processing cell lysates in the absence of the primary anti-p53 antibody.

[14] = target: T3, MDM2/p53 complex; experiment: Association and dissociation kinetics towards MDM2 in U87MG cell lysates; type: biochemical; details: lysates treated at ten-fold IC50, diluted 1:20, 0-180 min
Description: Following incubation, cell lysates were captured on wells pre-coated with MDM2 antibody for an additional 60 min.
Dissociation was initiated by the addition of 20 volumes of cold buffer, and lysates were further incubated at 4°C for the indicated times (0-180 min). Following incubation, 200 μl of the mixture were captured on wells pre-coated with MDM2 antibody for an additional 60 min.

[15] = Stability test in aqueous solution by HPLC; type: physicochemical; details: 1 μM in PBS with 1% DMSO, within 72 h
Description: To test the stability of EB148 in aqueous solution, the compound was dissolved in DMSO and diluted with PBS to the final 1 μM concentration (the amount of DMSO in the final solution was 1%). The solution was maintained in a closed vial and analysed by HPLC at specific times (4, 8, 24, 48 and 72 h) using the following conditions: column Shim-pack VP-ODS 4.6 μm (250 mm × 4.6 mm), isocratic elution with water, flow rate of 1 ml/min, room temperature. The percentage of decomposition was calculated on the base of peak area of the product.

T1 sequence (P30536 whole entry): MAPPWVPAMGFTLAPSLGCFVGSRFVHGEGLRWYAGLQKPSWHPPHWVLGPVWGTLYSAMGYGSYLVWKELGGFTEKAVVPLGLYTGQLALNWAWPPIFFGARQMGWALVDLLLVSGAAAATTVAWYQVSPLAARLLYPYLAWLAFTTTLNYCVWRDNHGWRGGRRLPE
T3 sequence (Q00987 whole entry, one chain of several): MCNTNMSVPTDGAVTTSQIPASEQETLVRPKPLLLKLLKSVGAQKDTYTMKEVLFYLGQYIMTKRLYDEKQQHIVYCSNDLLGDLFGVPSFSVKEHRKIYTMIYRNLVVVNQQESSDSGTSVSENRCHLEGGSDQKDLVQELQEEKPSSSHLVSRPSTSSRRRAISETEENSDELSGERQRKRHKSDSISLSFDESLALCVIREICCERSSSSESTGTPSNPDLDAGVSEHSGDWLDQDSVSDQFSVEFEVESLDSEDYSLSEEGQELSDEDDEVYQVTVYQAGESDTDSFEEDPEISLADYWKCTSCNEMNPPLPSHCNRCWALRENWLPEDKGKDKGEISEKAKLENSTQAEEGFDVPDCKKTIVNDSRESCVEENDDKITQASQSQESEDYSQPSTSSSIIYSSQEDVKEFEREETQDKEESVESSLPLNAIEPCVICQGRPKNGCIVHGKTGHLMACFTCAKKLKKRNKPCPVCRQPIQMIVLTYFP
T2 sequence (Q00987 whole entry, one chain of several): as above

CCOC(=O)[C@@H](Cc1ccccc1)NC(=O)[C@H](CC(C)C)NC(=O)C(=O)c1c(-c2ccccc2)[nH]c2ccccc12 [EB54]
cell proliferation 72 h after cell wash-out [1]: significant recovery in proliferative activity | mRNA expression level of p21, p53 and MDM2 ([2]; 1 μM, 8 and 16 h): significant increase | mRNA expression of p21, p53 and MDM2 ([2]; 1 μM, after 24 h): significantly lower than controls | levels of p53 target gene transcripts after wash-out [2]: down-regulated | total number of living cells [3]: reduced the total number of living cells | JC-1 accumulation (Δψm) compared to control untreated mitochondria [4]: significant reduction | ERK1/2 phosphorylation [5]: did not induce any significant ERK1/2 stimulation | effect of blocking p53 on compound-mediated ERK1/2 activation [5]: did not significantly affect | MSC viability/proliferation [6]: significantly decreased | p53 protein levels after wash-out [7]: control levels | p53 protein levels [7]: slight but significant increase | koff [8]: 0.000482 s⁻¹ | kon [8]: 3600 M⁻¹ s⁻¹ | Kd [8]: 134 nM | phosphatidylserine externalization (early and late apoptosis) [9]: significant phoshpatidilserine externalization | Ki [10]: 108 ± 10 nM

CCOC(=O)[C@@H](Cc1ccccc1)NC(=O)[C@H](CC(C)C)NC(=O)C(=O)c1c(-c2ccccc2)[nH]c2ccc(N=C=S)cc12 [EB148]
IC50 ([1]; Homo sapiens, U-87 MG, 72 h, read-out: IC50 of cell proliferation): 91.6 ± 8.9 nM | cell proliferation 72 h after cell wash-out [1]: inhibition of cell proliferation was maintained | induction of MDM2 mRNA ([2]; 1 μM, 8 h): 6.9 fold | induction of MDM2 mRNA ([2]; 1 μM, 16 h): 8.8 fold | induction of MDM2 mRNA ([2]; 1 μM, 24 h): 2.2 fold | mRNA expression of p53 target genes ([2]; 1 μM, up to 24 h of cell treatment): sustained increase | levels of p53 target gene transcripts after wash-out [2]: returned to control values | total number of living cells [3]: reduced the total number of living cells | JC-1 accumulation (Δψm) compared to control untreated mitochondria [4]: significant reduction | Δψm after mitochondria wash-out ([4]; then centrifuged and washed to remove the ligands): determined Δψm collapse | p53-MDM2 complex formation after 24 h cell wash-out ([11]; 1 μM for 8 h, then 24 h wash-out): significantly lower than in the control | p53-MDM2 complex in whole cells ([11]; 1 μM, 8 h): inhibited | ERK activation after cell wash-out ([5]; 1 μM for 2 h, then drug-free medium for 2 h): continued to significantly activate | ERK1/2 phosphorylation [5]: significant ERK phosphorylation | effect of blocking p53 on compound-mediated ERK1/2 activation [5]: completely impaired | MSC viability/proliferation [6]: did not affect MSC proliferation | ERK/MDM2 association after cell wash-out ([12]; 1 μM for 8 h, then wash-out for 24 h): remained significant | ERK/MDM2 complex formation ([12]; 1 μM, 8 and 24 h): significant and marked induction | p53 protein levels after wash-out [7]: maintained high p53 levels | p53 protein levels [7]: slight but significant increase | koff [8]: 8.01e-05 s⁻¹ | kon [8]: 5350 M⁻¹ s⁻¹ | Kd [8]: 150 nM | phosphatidylserine externalization (early and late apoptosis) [9]: significant phoshpatidilserine externalization | Ki [10]: 199 ± 18 nM | IC50 [13]: 6.81 ± 0.79 nM | activity in inhibiting p53-MDM2 complex after sample dilution [14]: maintained unchanged | average peak area (stability in aqueous solution) [15]: 98.83 ± 0.47%
